Test results from the NIST ThermoML archive (doi:10.1016/j.jct.2004.09.009).

Tests used:
[1] = Liquid; for mass density: 298.15 K, 101.33 kPa, Vibrating tube method; for vapor or sublimation pressure / Normal boiling temperature: Ebulliometric method (Recirculating still)
[2] = xn = mol fraction of the nth substance listed; details: 101.3 kPa, Liquid

CCC(C)O (stereo not drawn) [butan-2-ol]
[1]
Details | Normal boiling temperature [°C] | mass density [kg/m3]
– | 99.19 | 802.4

[1]
Details | vapor or sublimation pressure [kPa]
355.98 K | 53.32
358.8 K | 59.98
361.41 K | 66.64
363.82 K | 73.31
366.02 K | 79.97
368.13 K | 86.64
370.09 K | 93.3
370.83 K | 95.97
371.54 K | 98.63
372.34 K | 101.3
373.09 K | 103.97
373.79 K | 106.63
375.46 K | 113.3
377.04 K | 119.96
378.57 K | 126.63
380.02 K | 133.29
381.42 K | 139.95
382.76 K | 146.62
384.06 K | 153.28
385.31 K | 159.95
386.52 K | 166.61
387.69 K | 173.28
388.83 K | 179.94
389.94 K | 186.61
391 K | 193.27
392.05 K | 199.93
393.07 K | 206.6
394.07 K | 213.26
395.06 K | 219.93
396.01 K | 226.59
396.94 K | 233.26
397.86 K | 239.92
398.76 K | 246.59
399.64 K | 253.25
400.48 K | 259.91
401.34 K | 266.58
402.19 K | 273.24
402.98 K | 279.91
403.77 K | 286.57
404.56 K | 293.24
405.32 K | 299.9

CC(C)O [propan-2-ol]
[1]
Details | Normal boiling temperature [°C] | mass density [kg/m3]
– | 82.46 | 780.87

[1]
Details | vapor or sublimation pressure [kPa]
345.46 K | 66.64
347.71 K | 73.31
349.79 K | 79.97
351.72 K | 86.64
353.54 K | 93.3
354.01 K | 95.04
355.25 K | 99.97
355.61 K | 101.3
356.27 K | 103.97
356.9 K | 106.63
358.45 K | 113.3
359.91 K | 119.96
361.29 K | 126.63
362.65 K | 133.29
363.94 K | 139.95
365.2 K | 146.62
366.38 K | 153.28
367.56 K | 159.95
368.65 K | 166.61
369.76 K | 173.28
371.81 K | 186.61
372.8 K | 193.27
373.76 K | 199.93
374.69 K | 206.6
375.57 K | 213.26
376.46 K | 219.93
377.29 K | 226.59
378.13 K | 233.26
378.93 K | 239.92
379.71 K | 246.59
380.45 K | 253.25
381.17 K | 259.91
381.89 K | 266.58
382.8 K | 273.24
383.48 K | 279.91
384.11 K | 286.57
384.79 K | 293.24
385.42 K | 299.9

CC1CCCCC1 [methylcyclohexane] + CCOC(=O)OCC
[2], x2 = 0
Details | mass density [kg/m3]
293.15 K | 769.3
298.15 K | 764.98
303.15 K | 760.65
308.15 K | 756.29
313.15 K | 751.93

CC1CCCCC1 [methylcyclohexane]
[1]
Details | Normal boiling temperature [°C] | mass density [kg/m3]
– | 100.92 | 764.98

[1]
Details | vapor or sublimation pressure [kPa]
352.46 K | 53.32
356.26 K | 59.98
359.62 K | 66.64
362.83 K | 73.31
365.81 K | 79.97
368.47 K | 86.64
370.99 K | 93.3
371.98 K | 95.97
373.08 K | 98.63
374.07 K | 101.3
374.95 K | 103.97
375.86 K | 106.63
378.04 K | 113.3
380.12 K | 119.96
382.12 K | 126.63
384.05 K | 133.29
385.89 K | 139.95
387.59 K | 146.62
389.36 K | 153.28
391.04 K | 159.95
392.8 K | 166.61
394.38 K | 173.28
395.87 K | 179.94
397.33 K | 186.61
398.76 K | 193.27
400.12 K | 199.93
401.45 K | 206.6
402.8 K | 213.26
404.1 K | 219.93
405.35 K | 226.59
406.56 K | 233.26
407.66 K | 239.92
408.9 K | 246.59
409.98 K | 253.25

CCOC(=O)OCC [diethyl carbonate]
[1]
Details | Normal boiling temperature [°C] | mass density [kg/m3]
– | 126.17 | 969.24

COC(=O)OC [dimethyl carbonate]
[1]
Details | Normal boiling temperature [°C] | mass density [kg/m3]
– | 90.31 | 1063.36

CCOC(=O)OCC [diethyl carbonate] + CC1CCCCC1
mass density [kg/m3], [2]
Details | 293.15 K | 298.15 K | 303.15 K | 308.15 K | 313.15 K
x1 = 0.0473 | 777.44 | 773.05 | 768.64 | 764.22 | 759.78
x1 = 0.0978 | 786.43 | 781.97 | 777.5 | 773 | 768.48
x1 = 0.1985 | 804.96 | 800.36 | 795.73 | 791.09 | 786.42
x1 = 0.2968 | 823.73 | 818.99 | 814.23 | 809.44 | 804.6
x1 = 0.3924 | 842.56 | 837.7 | 832.8 | 827.88 | 822.9
x1 = 0.4993 | 864.26 | 859.23 | 854.18 | 849.14 | 844.04
x1 = 0.5999 | 885.33 | 880.2 | 875.04 | 869.85 | 864.64
x1 = 0.6985 | 906.48 | 901.24 | 895.95 | 890.65 | 885.31
x1 = 0.7988 | 928.64 | 923.28 | 917.88 | 912.46 | 907.02
x1 = 0.8996 | 951.53 | 946.06 | 940.54 | 935.01 | 929.44
x1 = 0.9509 | 963.41 | 957.86 | 952.29 | 946.7 | 941.08
x1 = 1 | 974.83 | 969.24 | 963.61 | 957.96 | 952.29
